Measured values taken from patent US5744621A, “Irreversible HIV protease inhibitors, intermediates, compositions and processes for the preparation thereof” (Lucky Limited., priority 1992, dated 1998).
Read-outs that look alike come from different tables or passages of the source.

How the values were obtained:
H9 cell or Sup T1 cell = experiment: Cytotoxicity in H9 or Sup T1 cells (trypan blue dye exclusion); type: cell-based; conditions: human, h9 or sup t1 cells
Procedure: (§1) To determine the cytotoxicity of the compounds of the present invention, 0.1 μM to 100 μM of the novel compounds were added to H9 cell or Sup T1 cell and the mixture was cultured on a rpmi-1640 medium at 37° C. The medium was refreshed every 3 days and the extent of cell proliferation was observed using Hemacytometer according to the trypan blue dye exclusion technique which is well known in the art. CT50 (i.e., concentration that causes death of cells by 50%) was determined. For reference, AZT(Burrows-Wellcome), A-75925 (Abbott, C2 symmetric compound) and Ro-31-8959(F. Hofmann-La Roche) were used as control compounds.

HIV-1 = experiment: Anti-viral activity: syncytium formation (Sup T1) or reverse transcriptase assay (H9); type: cell-based
Procedure: The anti-viral activity of the compounds of the present invention was determined by measuring the concentration of the compounds that inhibits the proliferation of HIV by 50%(IC50) through a survey for syncytium formation or reverse transcriptase assay.
1×10^5 cells of each of H9(ATCC HTB 176) and Sup T1 cell lines were added to the wells of a 24-well microtiter plate and various concentrations so the compounds of the present invention were added thereto. 200 TCID50 (200-fold of 50% tissue culture infection dose) of HIV-1 inoculum and rpmi-1640 medium(Sigma Chemical Co., U.S.A) were added successively to the wells and the plate was incubated at 37° C. In case of Sup T1, the number of syncytium formed was investigated after 3 to 9 days. IC50 of each compound was determined by measuring the concentration of inhibitor that can reduce the number of syncytium by 50% compared with those formed in the same condition without the inhibitor.
In case of H9, three-quarters(3/4) of the culture medium in volume was refreshed every 3 days; and 6 ml of the culture fluid was centrifuged at 1000 rpm for 10 minutes. To 5 ml of the resulting supernatant were added 2.5 ml of 30% polyethyleneglycol(PEG, M.W. 6000-8000) and 0.4M NaCl. The resulting solution was allowed to stand at 0° C. overnight to precipitate virus particles. The solution was centrifuged at 2000 rpm for 45 minutes, the supernatant was discarded therefrom and the precipitate was diluted with 20 μl of a reverse transcriptase suspension buffer(50 mM tris-HCl, pH 7.5, 1 mM dithiothreitol, 20% glycerol, 0.25M KCl and 0.25% Triton X-100). The resulting suspension was stored in an Effendorf tube at -70° C. until used. A procedure of freezing said virus suspension for 2 minutes in dry ice and thawing same at 37° C. for 2 minutes was repeated three times and the resulting suspension was centrifuged at 4° C. The resulting supernatant was used in carrying out the reverse transcriptase assay.
10 μl of the said viral suspension was added to a solution of: 10 μl of buffer solution(250 mM tris-HCl, pH 7.5, 37.5 mM MgCl2, 0.25% triton X-100), 1.2 μl of 200 mM dithiothreitol, 5 μl of 10 μM oligo(dT)-poly(A)(Boeringer Manheim, 12-18 oligomer), 1 μl(1 μCi) of ^3 H-TTP(Thymidinetri-phosphate) and 23.6 μl of water; and the resulting mixture was placed at 37° C. After 1 hour, the mixture was poured onto a WHATMAN DEB1 filter and the filter was washed three times with 5 ml of 2×SSC buffer solution(17.53 g of sodium chloride, 8.82 g of sodium citrate, pH 7.0, 1 liter of water) for about 10 minutes each time and twice with 95% ethanol for 10 seconds. The filter was put onto aluminium foil and dried with an infra-red lamp. The amount of radioactivity was counted using a liquid scintillation counter. IC50 of each compound was determined by measuring the concentration of inhibitor that can reduce the activity of reverse transcriptase by 50%.

HIV-1 protease = target: T1, HIV-1 protease (Human immunodeficiency virus type 1 group M subtype B, UniProt P04585); experiment: Assay for inhibitory effect on HIV protease (residual enzyme activity, HPLC of substrate cleavage); type: biochemical
T1 construct: 2.6 nM of HIV-1 protease
Method in brief: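 HIV-1 protease (2.6 nM) incubated with inhibitor in 50 mM sodium acetate pH 5.5, 1 mM DTT, 1 mM EDTA, 0.75 M ammonium sulfate, 0.2 M NaCl, 0.1% NP40. Residual activity was sampled over time using 100 μM p-NO2-Phe undecapeptide substrate (KM 20 μM), HPLC, 280 nm. kobs came from ln(activity)-versus-time slope, and KI and kina from kinetic fitting.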

[1] = Cytotoxicity in H9 or Sup T1 cells (trypan blue dye exclusion); type: cell-based; conditions: human
Procedure: as §1

[2] = HIV-1 protease 2.6 nM, pH 5.5, inhibition constant
[3] = HIV-1 protease 2.6 nM, pH 5.5, rate constant of covalent bond formation, read-out: kina (converted)
[4] = second order rate constant, HIV-1 protease, pH 5.5, read-out: kina /KI (converted)
[5] = concentration that causes death of cells by 50%, H9 or Sup T1 cells, 37° C, read-out: CT50 (the source's name)
[6] = Human immunodeficiency virus 1, SUP-T1

SMILES	CC50 (H9 cell or Sup T1 cell)	IC50 (HIV-1; inhibits proliferation of HIV by 50%, Sup T1 syncytium or H9 reverse transcriptase assay, 37° C, read-out: IC50)	Ki (HIV-1 protease; [2])	kinact (HIV-1 protease; [3])	kinact/KI (HIV-1 protease; [4])	CC50 [1, 5]	IC50 (HIV-1; [6])	Ki (HIV-1 protease)	kinact (HIV-1 protease; pH 5.5, read-out: kina)	kinact/KI (HIV-1 protease; pH 5.5, read-out: kina /KI)	CC50 ([1]; h9 or sup t1 cells)
CC(C)[C@H](NC(=O)OCc1ccccc1)C(=O)N[C@@H](Cc1ccccc1)[C@@H](O)[C@H](O)[C@H](Cc1ccccc1)NC(=O)[C@@H](NC(=O)OCc1ccccc1)C(C)C [A-75925, reference compound]	> 100 µM	0.25 µM	–	–	–	–	–	–	–	–	–
CC(C)CC[C@@H]1O[C@@H]1[C@H](Cc1ccccc1)NC(=O)[C@H](CC(N)=O)NC(=O)c1ccc2ccccc2n1 [compound 70, 2-L-[N-(2-quinolinecarbonyl)-L-asparaginyl]amino-(3R,4S)-epoxy-7-methyl-1-phenyloctane]	–	–	0.31 µM	0.002 s⁻¹	6500 M⁻¹ s⁻¹	> 100 µM	5 µM	–	–	–	–
CC(C)[C@H](NC(=O)OCc1ccccc1)C(=O)NC[C@@H]1O[C@@H]1[C@H](Cc1ccccc1)NC(=O)[C@@H](NC(=O)OCc1ccccc1)C(C)C [compound 71, 4S-1,4-bis[N-(N'-benzyloxycarbonyl-L-valinyl)amino]-5-phenyl-(2S,3R)-(Z)-epoxypentane]	–	–	–	–	–	> 100 µM	0.08 µM	0.00018 µM	0.00233 s⁻¹	1.28e+06 M⁻¹ s⁻¹	–
NC(=O)C[C@H](NC(=O)OCc1ccccc1)C(=O)NC[C@@H]1O[C@@H]1[C@H](Cc1ccccc1)NC(=O)[C@H](CC(N)=O)NC(=O)OCc1ccccc1 [compound 72]	–	–	0.11 µM	0.00367 s⁻¹	33300 M⁻¹ s⁻¹	–	0.5 µM	–	–	–	> 100 µM
C[C@@H](O)[C@H](NC(=O)OCc1ccccc1)C(=O)NC[C@@H]1O[C@@H]1[C@H](Cc1ccccc1)NC(=O)[C@@H](NC(=O)OCc1ccccc1)[C@@H](C)O [compound 73]	–	–	> 10 µM	–	–	> 100 µM	5 µM	–	–	–	–
CC(C)[C@H](NC(=O)OCc1ccccc1)C(=O)NC[C@@H]1O[C@@H]1[C@H](Cc1ccccc1)NC(=O)[C@H](CC(N)=O)NC(=O)OCc1ccccc1 [compound 75]	–	–	> 10 µM	–	–	> 10 µM	1 µM	–	–	–	–
CC(C)[C@H](NC(=O)OCc1ccccc1)C(=O)N[C@@H](Cc1ccccc1)[C@H]1O[C@H]1CNC(=O)[C@H](CC(N)=O)NC(=O)OCc1ccccc1 [compound 76, 4S-[N^1-[(N-benzyloxycarbonyl-L-asparaginyl)amino]]-[N^4-[(N-benzyloxycarbonyl-L-valinyl)amino]]-5-phenyl-(2S,3R)-(Z)-epoxypentane]	–	–	2 µM	0.000767 s⁻¹	383 M⁻¹ s⁻¹	> 100 µM	1 µM	–	–	–	–
CC(C)[C@H](NC(=O)OCc1ccccn1)C(=O)NC[C@@H]1O[C@@H]1[C@H](Cc1ccccc1)NC(=O)[C@@H](NC(=O)OCc1ccccn1)C(C)C [compound 77]	–	–	0.1 µM	0.004 s⁻¹	40000 M⁻¹ s⁻¹	> 100 µM	1 µM	–	–	–	–
CC(C)[C@H](NC(=O)N(C)Cc1ccccn1)C(=O)NC[C@@H]1O[C@@H]1[C@H](Cc1ccccc1)NC(=O)[C@@H](NC(=O)N(C)Cc1ccccn1)C(C)C [compound 80]	–	–	0.15 µM	0.00533 s⁻¹	35000 M⁻¹ s⁻¹	> 100 µM	0.5 µM	–	–	–	–
CC(C)[C@H](NC(=O)OCc1ccccc1)C(=O)N[C@@H](Cc1ccccc1)[C@H]1O[C@H]1CNC(=O)OC(C)(C)C [compound 82, 4S-[N^1-(t-butoxycarbonyl)amino]-[N^4-[(N-benzyloxycarbonyl-L-valinyl)amino]]-5-phenyl-(2S,3R)-(Z)-epoxypentane]	–	–	0.45 µM	0.0183 s⁻¹	40000 M⁻¹ s⁻¹	> 10 µM	0.75 µM	–	–	–	–
CC(C)(C)OC(=O)NC[C@@H]1O[C@@H]1[C@H](Cc1ccccc1)NC(=O)[C@H](CC(N)=O)NC(=O)c1ccc2ccccc2n1 [compound 83]	–	–	0.4 µM	0.02 s⁻¹	50000 M⁻¹ s⁻¹	> 10 µM	0.75 µM	–	–	–	–
NC(=O)C[C@H](NC(=O)c1ccc2ccccc2n1)C(=O)NC[C@@H]1O[C@@H]1[C@H](Cc1ccccc1)NC(=O)[C@H](CC(N)=O)NC(=O)c1ccc2ccccc2n1 [compound 84]	–	–	0.5 µM	0.00333 s⁻¹	6670 M⁻¹ s⁻¹	> 100 µM	1 µM	–	–	–	–
NC(=O)C[C@H](NC(=O)OCc1ccccc1)C(=O)NC[C@@H]1O[C@@H]1[C@H](CC1CCCCC1)NC(=O)[C@H](CC(N)=O)NC(=O)OCc1ccccc1 [compound 85]	–	–	> 10 µM	–	–	–	5 µM	–	–	–	> 100 µM
CC(C)[C@H](NC(=O)OCc1ccccc1)C(=O)NC[C@@H]1O[C@@H]1[C@H](CC1CCCCC1)NC(=O)[C@@H](NC(=O)OCc1ccccc1)C(C)C [compound 86, 4S-1,4-bis[N-(N'-benzyloxycarbonyl-L-valinyl)amino]-5-cyclohexyl-(2S,3R)-(Z)-epoxypentane]	–	–	0.05 µM	0.00333 s⁻¹	66700 M⁻¹ s⁻¹	> 100 µM	0.5 µM	–	–	–	–
